The target in assay [1] is T1, AfGDH (Aspergillus flavus FAD-dependent glucose dehydrogenase, FADGDH) (Aspergillus flavus, UniProt B8MX95).
T1 construct: gene F9C07_464; residues 24-593, secretion signal peptide (1-22) removed; codon-optimised synthetic gene in pET30C, E. coli Origami2 (DE3); nonglycosylated; monomer
T1 sequence (B8MX95 24-593): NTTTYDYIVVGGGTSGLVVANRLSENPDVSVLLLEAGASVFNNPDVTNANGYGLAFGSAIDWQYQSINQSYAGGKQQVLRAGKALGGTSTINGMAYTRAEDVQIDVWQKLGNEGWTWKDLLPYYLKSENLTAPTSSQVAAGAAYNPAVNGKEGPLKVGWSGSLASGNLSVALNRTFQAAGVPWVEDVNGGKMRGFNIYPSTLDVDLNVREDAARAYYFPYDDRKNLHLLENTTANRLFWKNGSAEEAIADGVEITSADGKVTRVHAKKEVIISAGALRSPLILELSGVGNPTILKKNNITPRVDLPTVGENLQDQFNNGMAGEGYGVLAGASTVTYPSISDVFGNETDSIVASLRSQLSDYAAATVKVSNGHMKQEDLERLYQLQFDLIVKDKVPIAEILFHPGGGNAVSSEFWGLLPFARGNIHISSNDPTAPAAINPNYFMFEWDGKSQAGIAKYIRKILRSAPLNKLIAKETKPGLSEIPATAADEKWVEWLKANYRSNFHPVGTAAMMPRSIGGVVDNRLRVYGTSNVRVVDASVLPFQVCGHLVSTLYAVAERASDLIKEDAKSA
Kind of assay: PMS/DCIP reduction, absorbance at […] nm; FAD reduction spectrum. The format is biochemical. To be noted: 200 mM D-glucose, 0.6 mM PMS, 0.06 mM DCIP, 10 mM potassium phosphate pH 6.5, 25 °C.

Assay [2] addresses T1, AfGDH (Aspergillus flavus FAD-dependent glucose dehydrogenase, FADGDH). Kind of assay: X-ray crystal structure, […] Å. The settings on record: co-purified cofactor, refined as reduced form; pH 6.5; also in 4YNU. In kind it is binding.

The structures appear in SMILES notation.

For the compound `OC[C@H]1OC(O)[C@H](O)[C@@H](O)[C@@H]1O` (stereo partly drawn) [D-glucose], the specific activity result in assay [1] was “The addition of glucose to the wild type enzyme resulted in the disappearance of the peaks”.

Consider `Cc1cc2c(cc1C)N(C[C@H](O)[C@H](O)[C@H](O)COP(=O)(O)OP(=O)(O)OC[C@H]1O[C@@H](n3cnc4c(N)ncnc43)[C@H](O)[C@@H]1O)c1[nH]c(=O)[nH]c(=O)c1N2` [reduced FAD], for which the “X-ray crystal structure, 1.78 Å” value in assay [2] is listed as “The bound FAD molecule was refined as a reduced FAD cofactor (FADH2)”.

Values taken from paper PMC4642536, “Structural analysis of fungus-derived FAD glucose dehydrogenase” (Scientific Reports, 2015).
